According to patent publication US11618746B2, “Inhibitors of APOL1 and methods of using same” (Vertex Pharmaceuticals Incorporated, priority 2018, dated 2023):

Target: T1, APOL1 G1 Protein (Homo sapiens, UniProt O14791, I384M/S342G)
T1 sequence (O14791 28-398 S342G/I384M): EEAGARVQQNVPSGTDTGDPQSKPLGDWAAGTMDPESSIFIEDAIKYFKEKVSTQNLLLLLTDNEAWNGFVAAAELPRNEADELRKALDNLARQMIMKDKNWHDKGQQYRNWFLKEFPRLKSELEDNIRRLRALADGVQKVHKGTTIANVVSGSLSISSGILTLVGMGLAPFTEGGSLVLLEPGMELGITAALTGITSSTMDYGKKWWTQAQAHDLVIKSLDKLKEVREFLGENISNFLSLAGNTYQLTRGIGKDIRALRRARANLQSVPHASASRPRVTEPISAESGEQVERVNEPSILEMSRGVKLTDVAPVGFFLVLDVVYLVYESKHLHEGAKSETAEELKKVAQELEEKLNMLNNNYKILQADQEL
Assay: Trypanosoma brucei brucei lysis assay using APOL1 recombinant protein (AlamarBlue viability readout)
Format: cell-based
Conditions: Trypanosoma brucei brucei (Lister 427 VSG 221 bloodstream form) lysis by 0.05 μg/mL recombinant APOL1 G1, 16 hrs
Description: Trypanosoma brucei brucei is a blood stream parasite to which human, gorillas and baboon are immune due to the presence of the APOL1 protein in their HDL particles. The protein is uptaken by the parasite via the TbHpHb receptor located in its flagellar pocket and is bonded by the Hpr protein contained in the HDL particles which triggers the receptor endocytosis by the parasite.
Following endocytosis, the formed vesicle containing the HDL particle matures from early to late endosome, and subsequently to lysosome. The concomitant pH change in the lumen of the vesicle triggers the insertion of the APOL1 protein into the membrane of the late endosome/lysosome and hereby triggers lysosomal membrane premeabilisation and as a further downstream event, trypanosome lysis. Trypanosoma brucei brucei is sensitive to lysis by all three APOL1 variants (G0, G1, and G2).
The Trypanosoma brucei brucei lysis assay is a lysis assay of the parasite using recombinant APOL1 protein variant followed by a fluorescent detection method of viability by the addition of AlamarBlue reagent to the assay well, a general metabolic redox indicator (AlamarBlue assay).
Briefly, the AlamarBlue active compound, the resazurin, a blue, water soluble, non-toxic and cell permeable molecule, which can be followed by absorbance, is reduced by various metabolic pathways into resorufin, a red compound which can be followed by either absorbance or fluorescence. The assay allows the calculation of the percent viability (percent of living Trypanosomes remaining in each well) at the end of a lysis relative to the untreated condition by interpolation of fluorescent values (FLU) on a standard curve with a known amount of seeded trypanosome/well.
Trypanosoma brucei brucei (ATCC, Cat. No. PRA-382) • Lister 427 VSG 221 bloodstream form.
Thaw/Expansion Media (ATCC Medium 2834 Modified HMI-9 Medium)
Equipment • E1-Clip Tip pipette 12 channel adjustable 2-125 μL, Cat. No. 4672070BT • ThermoFisher MultiDrop 384, Cat. No. 5840300 • Multidrop • Agilent Bravo, Cat. No. G5409A • Bravo • SpectraMax M5
Trypanosoma brucei brucei Culture
Step 2, Day 4 • Centrifuge at 800×g for 5 minutes at room temperature. • Resuspend in 1 mL media. • Make a 1:25 fold dilution (10 μL/240 μL media). • Count on a hemocytometer (after adding parasites). • Let sit for 1-2 minutes for the parasites to settle. • Count should be approximately 100 viable motile parasites/16 grid or approximately 25×10^6 parasites/flask. • Passage the parasites by adding 1×10^6 parasites/T75 flask in 20 mL media. • Passage the parasites by adding 2.33×10^6 parasites/T175 flask in 46.6 mL media. • For every T75 flask should make enough for approximately 1.5×384 well assay plates. • For every T175 flask should make enough for approximately 3.8×384 well assay plates.
Step 3. Day 6 • Centrifuge at 800×g for 5 minutes. • Resuspend in 3 mL assay media (No phenol red, no FBS) per 75 starting flask. • Resuspend in 7 mL assay media (No phenol red, no FBS) per 175 flask • Make a 1:25 fold dilution. • Count by hemocytometer. • Every T75 flask set up should have approximately 75×10^6 parasites/flask (verify doubling time=8.7 hrs 1 hr). • Every T175 flask set up should have approximately 175×10^6 parasites/flask (verify doubling time=8.7 hrs±1 hr). • Require 46×10^6 parasites per 384 well plate (at 120,000 parasites per well).
Step 2, Day 2 • Centrifuge at 800×g for 5 minutes at room temperature. • Resuspend in 1 mL media. • Make a 1:25 fold dilution (10 L/240 μL media). • Let sit for 1-2 minutes for the parasites to settle. • Count should be approximately 100 viable motile parasites/16 grid or approximately 8×10^6 parasites per flask. • Passage the parasites by adding 1.25×10^6 parasites per T75 flask in 20 mL media. • For every T75 flask set up should have approximately 1.5×384 well assay plates. • For every T175 flask setup should have approximately 3.8×384 well assay plates. […]

Row | SMILES | IC50
1 | O=C(CCc1c(-c2ccc(F)cc2)[nH]c2c(F)cc(F)cc12)N[C@@H]1C(=O)NC[C@@H]1O [Compound 1, 3-[5,7-difluoro-2-(4-fluorophenyl)-1H-indol-3-yl]-N-[(3S,4S)-4-hydroxy-2-oxo-pyrrolidin-3-yl]propanamide] | < 250 nM
2 | O=C(CCc1c(-c2ccc(F)cc2)[nH]c2c(F)cc(F)cc12)N[C@@H]1C(=O)NC[C@H]1O [Compound 2, 3-[5,7-difluoro-2-(4-fluorophenyl)-1H-indol-3-yl]-N-[(3S,4R)-4-hydroxy-2-oxo-pyrrolidin-3-yl]propanamide] | < 250 nM
3 | [2H]C([2H])(C(=O)N[C@@H]1C(=O)NC[C@H]1O)C([2H])([2H])c1c(-c2ccc(F)cc2)[nH]c2c(F)cc(F)cc12 [Compound 88, 2,2,3,3-tetradeutero-3-[5,7-difluoro-2-(4-fluorophenyl)-1H-indol-3-yl]-N-[(3S,4R)-4-hydroxy-2-oxo-pyrrolidin-3-yl]propanamide] | < 250 nM
4 | [2H]C(C(=O)N[C@@H]1C(=O)NC[C@H]1O)C([2H])c1c(-c2ccc(F)cc2)[nH]c2c(F)cc(F)cc12 (stereo partly drawn) [Compound 89, 2,3-dideuterio-3-[5,7-difluoro-2-(4-fluorophenyl)-1H-indol-3-yl]-N-[(3S,4R)-4-hydroxy-2-oxo-pyrrolidin-3-yl]propanamide] | < 250 nM
